Assay results from PubChem BioAssay (NCI).
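Results reflect a 48-hour exposure of cells in 96-well plates to compound at five concentrations. Here, GI50 denotes the concentration required for 50% inhibition of growth. TGI: concentration producing complete growth inhibition.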

Columns and labels:
Experiment in all cases: growth of human tumour cells (NCI), 48 h
786-0 renal = system: 786-0 renal
A498 renal = system: A498 renal
A549 NSCLC = system: A549 NSCLC
ACHN renal = system: ACHN renal
BT-549 breast = system: BT-549 breast
CAKI-1 renal = system: CAKI-1 renal
COLO 205 colon = system: COLO 205 colon
DU-145 prostate = system: DU-145 prostate
EKVX NSCLC = system: EKVX NSCLC
HCC-2998 colon = system: HCC-2998 colon
HCT-116 colon = system: HCT-116 colon
HCT-15 colon = system: HCT-15 colon
HL-60(TB) leukemia = system: HL-60(TB) leukemia
HOP-62 NSCLC = system: HOP-62 NSCLC
HOP-92 NSCLC = system: HOP-92 NSCLC
HS 578T breast = system: HS 578T breast
HT29 colon = system: HT29 colon
IGROV1 ovarian = system: IGROV1 ovarian
K-562 leukemia = system: K-562 leukemia
KM12 colon = system: KM12 colon
LOX IMVI melanoma = system: LOX IMVI melanoma
M14 melanoma = system: M14 melanoma
MALME-3M melanoma = system: MALME-3M melanoma
MCF7 breast = system: MCF7 breast
MDA-MB-231 breast = system: MDA-MB-231 breast
MDA-MB-435 = system: MDA-MB-435
MOLT-4 leukemia = system: MOLT-4 leukemia
NCI-H226 lung = system: NCI-H226 lung
NCI-H460 lung = system: NCI-H460 lung
NCI-H522 lung = system: NCI-H522 lung
NCI/ADR-RES ovarian = system: NCI/ADR-RES ovarian
OVCAR-4 ovarian = system: OVCAR-4 ovarian
OVCAR-5 ovarian = system: OVCAR-5 ovarian
OVCAR-8 ovarian = system: OVCAR-8 ovarian
PC-3 prostate = system: PC-3 prostate
SF-268 CNS = system: SF-268 CNS
SF-295 CNS = system: SF-295 CNS
SF-539 CNS = system: SF-539 CNS
SK-MEL-2 melanoma = system: SK-MEL-2 melanoma
SK-MEL-28 melanoma = system: SK-MEL-28 melanoma
SK-MEL-5 melanoma = system: SK-MEL-5 melanoma
SK-OV-3 ovarian = system: SK-OV-3 ovarian
SN12C renal = system: SN12C renal
SNB-19 CNS = system: SNB-19 CNS
SNB-75 CNS = system: SNB-75 CNS
SW-620 colon = system: SW-620 colon
T-47D breast = system: T-47D breast
TK-10 renal = system: TK-10 renal
U251 CNS = system: U251 CNS
UACC-257 melanoma = system: UACC-257 melanoma
UACC-62 melanoma = system: UACC-62 melanoma
UO-31 renal = system: UO-31 renal

`Cc1ccc(C2CC(c3ccc(Nc4nc(NCCO)nc(Nc5ccc(Cl)cc5)n4)cc3)=Nc3c(N)nc(N)nc3N2)cc1` (centres undefined) was tested, and the GI50 (786-0 renal) was 1640 nM, the TGI (786-0 renal) was 3060 nM and the GI50 (A498 renal) was 3850 nM. For the same compound, the TGI (A498 renal) was 17700 nM, the GI50 (A549 NSCLC) was 1740 nM and the TGI (A549 NSCLC) was 3440 nM. The GI50 (ACHN renal) was 1720 nM, the TGI (ACHN renal) was 3090 nM and the GI50 (BT-549 breast) was 1730 nM. The TGI (BT-549 breast) was 3140 nM, the GI50 (CAKI-1 renal) was 1640 nM and the TGI (CAKI-1 renal) was 3060 nM. It also gave a GI50 (COLO 205 colon) of 1670 nM, a TGI (COLO 205 colon) of 3190 nM and a GI50 (DU-145 prostate) of 1760 nM. The TGI (DU-145 prostate) was 3190 nM, the GI50 (EKVX NSCLC) was 1550 nM and the TGI (EKVX NSCLC) was 2970 nM. For the same compound, the GI50 (HCC-2998 colon) was 1550 nM, the TGI (HCC-2998 colon) was 2930 nM and the GI50 (HCT-116 colon) was 1620 nM. For the same compound, the TGI (HCT-116 colon) was 2970 nM, the GI50 (HCT-15 colon) was 1480 nM and the TGI (HCT-15 colon) was 2950 nM. The GI50 (HL-60(TB) leukemia) was 1710 nM, the TGI (HL-60(TB) leukemia) was 4710 nM and the GI50 (HOP-62 NSCLC) was 1680 nM. For the same compound, the TGI (HOP-62 NSCLC) was 3200 nM, the GI50 (HOP-92 NSCLC) was 1300 nM and the TGI (HOP-92 NSCLC) was 2860 nM. The GI50 (HS 578T breast) was 1790 nM, the TGI (HS 578T breast) was 4360 nM and the GI50 (HT29 colon) was 1780 nM. For the same compound, the TGI (HT29 colon) was 3560 nM, the GI50 (IGROV1 ovarian) was 1650 nM and the TGI (IGROV1 ovarian) was 3140 nM. The GI50 (K-562 leukemia) was 1340 nM, the TGI (K-562 leukemia) was 3920 nM and the GI50 (KM12 colon) was 1970 nM. It also gave a TGI (KM12 colon) of 3860 nM, a GI50 (LOX IMVI melanoma) of 1650 nM and a TGI (LOX IMVI melanoma) of 3070 nM. It also gave a GI50 (M14 melanoma) of 1840 nM, a TGI (M14 melanoma) of 3320 nM and a GI50 (MALME-3M melanoma) of 1700 nM. For the same compound, the TGI (MALME-3M melanoma) was 3370 nM, the GI50 (MCF7 breast) was 1460 nM and the TGI (MCF7 breast) was 3010 nM. It also gave a GI50 (MDA-MB-231 breast) of 1670 nM, a TGI (MDA-MB-231 breast) of 3260 nM and a GI50 (MDA-MB-435) of 1730 nM. It also gave a TGI (MDA-MB-435) of 3130 nM, a GI50 (MOLT-4 leukemia) of 1380 nM and a TGI (MOLT-4 leukemia) of 3890 nM. It also gave a GI50 (NCI-H226 lung) of 16700 nM, a TGI (NCI-H226 lung) of 38400 nM and a GI50 (NCI-H460 lung) of 1800 nM. For the same compound, the TGI (NCI-H460 lung) was 3390 nM, the GI50 (NCI-H522 lung) was 1720 nM and the TGI (NCI-H522 lung) was 3470 nM. The GI50 (NCI/ADR-RES ovarian) was 1730 nM, the TGI (NCI/ADR-RES ovarian) was 3480 nM and the GI50 (OVCAR-4 ovarian) was 1850 nM. For the same compound, the TGI (OVCAR-4 ovarian) was 3630 nM, the GI50 (OVCAR-5 ovarian) was 1620 nM and the TGI (OVCAR-5 ovarian) was 3010 nM. The GI50 (OVCAR-8 ovarian) was 1800 nM, the TGI (OVCAR-8 ovarian) was 3690 nM and the GI50 (PC-3 prostate) was 1740 nM. For the same compound, the TGI (PC-3 prostate) was 3600 nM, the GI50 (SF-268 CNS) was 1810 nM and the TGI (SF-268 CNS) was 3640 nM. It also gave a GI50 (SF-295 CNS) of 1630 nM, a TGI (SF-295 CNS) of 3030 nM and a GI50 (SF-539 CNS) of 1570 nM. It also gave a TGI (SF-539 CNS) of 2970 nM, a GI50 (SK-MEL-2 melanoma) of 1810 nM and a TGI (SK-MEL-2 melanoma) of 3400 nM. The GI50 (SK-MEL-28 melanoma) was 1770 nM, the TGI (SK-MEL-28 melanoma) was 3160 nM and the GI50 (SK-MEL-5 melanoma) was 1560 nM. For the same compound, the TGI (SK-MEL-5 melanoma) was 2910 nM, the GI50 (SK-OV-3 ovarian) was 2690 nM and the TGI (SK-OV-3 ovarian) was 7330 nM. It also gave a GI50 (SN12C renal) of 1790 nM, a TGI (SN12C renal) of 3380 nM and a GI50 (SNB-19 CNS) of 1570 nM. The TGI (SNB-19 CNS) was 3000 nM, the GI50 (SNB-75 CNS) was 1620 nM and the TGI (SNB-75 CNS) was 3310 nM. For the same compound, the GI50 (SW-620 colon) was 1790 nM, the TGI (SW-620 colon) was 3310 nM and the GI50 (T-47D breast) was 1670 nM. It also gave a TGI (T-47D breast) of 3650 nM, a GI50 (TK-10 renal) of 1900 nM and a TGI (TK-10 renal) of 3380 nM. For the same compound, the GI50 (U251 CNS) was 1600 nM, the TGI (U251 CNS) was 3010 nM and the GI50 (UACC-257 melanoma) was 1840 nM. It also gave a TGI (UACC-257 melanoma) of 3460 nM, a GI50 (UACC-62 melanoma) of 1820 nM and a TGI (UACC-62 melanoma) of 3390 nM. For the same compound, the GI50 (UO-31 renal) was 1640 nM and the TGI (UO-31 renal) was 3000 nM.
